The values below come from patent EP4722219A1 (Gan & Lee Pharmaceuticals Co., Ltd., priority 2023, dated 2024).

What all share (type): cell-based
In one experiment the target is T1, AR protein (Homo sapiens, UniProt P10275).
T1 construct: host or cells: VCaP
T1 sequence (P10275 1-920): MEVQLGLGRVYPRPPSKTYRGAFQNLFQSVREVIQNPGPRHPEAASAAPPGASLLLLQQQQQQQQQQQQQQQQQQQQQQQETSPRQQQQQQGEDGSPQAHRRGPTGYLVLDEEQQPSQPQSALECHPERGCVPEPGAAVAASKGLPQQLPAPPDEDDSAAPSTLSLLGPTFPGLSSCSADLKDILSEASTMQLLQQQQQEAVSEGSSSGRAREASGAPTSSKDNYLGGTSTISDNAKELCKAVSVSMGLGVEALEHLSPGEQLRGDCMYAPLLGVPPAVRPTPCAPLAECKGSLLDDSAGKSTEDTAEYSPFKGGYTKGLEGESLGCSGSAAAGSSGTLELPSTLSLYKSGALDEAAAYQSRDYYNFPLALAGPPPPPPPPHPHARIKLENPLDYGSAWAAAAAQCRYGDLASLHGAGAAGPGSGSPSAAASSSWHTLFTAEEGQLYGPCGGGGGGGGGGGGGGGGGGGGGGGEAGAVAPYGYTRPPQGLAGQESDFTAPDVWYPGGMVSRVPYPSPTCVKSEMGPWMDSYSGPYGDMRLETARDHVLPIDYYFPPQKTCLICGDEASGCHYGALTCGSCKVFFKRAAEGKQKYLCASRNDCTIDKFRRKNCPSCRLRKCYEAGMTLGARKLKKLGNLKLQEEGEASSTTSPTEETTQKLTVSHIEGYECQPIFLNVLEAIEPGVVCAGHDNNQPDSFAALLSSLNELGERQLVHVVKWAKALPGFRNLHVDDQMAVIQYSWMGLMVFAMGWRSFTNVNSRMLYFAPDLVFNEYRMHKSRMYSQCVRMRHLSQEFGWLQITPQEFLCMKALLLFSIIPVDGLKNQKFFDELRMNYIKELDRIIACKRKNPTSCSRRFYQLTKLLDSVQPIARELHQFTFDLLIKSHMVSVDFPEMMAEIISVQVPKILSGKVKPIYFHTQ
Description: AR protein degradation in VCaP cells (Western blot). The settings on record: 8h. Put shortly:
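AR-positive VCaP human prostate cancer cells grown in DMEM with 10% FBS were plated in six-well plates at 3×10^5 cells/well and incubated overnight. Compounds were then added at 1 µL/well alongside a solvent control and incubated for 8h. Lysates in RIPA buffer with protease inhibitor were quantified by BCA and run by SDS-PAGE. AR was detected by Western blot, and degradation was calculated from band grayscale normalized to GAPDH.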
In general terms: In western blotting, separated proteins are transferred to a membrane and probed.

A further experiment concerns LNCaP cells. Description: Inhibition of LNCaP cell proliferation (WST-8). The settings on record: LNCaP FGC cells, 96 hours. The method, boiled down: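 WST-8 absorbance at 450 nm measured proliferation after 96 h of compound exposure at 37 °C, 5% CO2. Dosing used nine 5-fold dilutions from a 10 µM top final concentration, applied to cells cultured overnight beforehand.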

A further experiment concerns VCaP cells. Nature of the experiment: Inhibition of VCaP cell proliferation (WST-8). The settings on record: 168 hours. The method, boiled down:
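Proliferation was read on day 9 as WST-8 absorbance at 450 nm after VCaP cells (15,000/well, DMEM/10% FBS, 37°C) were exposed from day 2 to compound at 9 points, 5-fold serial dilution, top final concentration 10 µM.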
On the technique in general: Tetrazolium dyes change colour on reduction, which living cells bring about.

In general, IC50 refers to the point on the concentration scale where inhibition reaches its midpoint. Read a high IC50 as weaker potency in that assay. As to “N-(1r,4r)-4-(3-chloro-4-cyanophenoxy)cyclohexy 1)-6-(4-(7-(2,6-dioxopiperidin-3-yl))-6-oxo-7,8-dihydro-2H,6H-dipyrido[2,3-e]isoindole-3,1'-cyclohexane-4',4‴-piperidin]-1"-yl)pyridazine-3-carboxamide [A-P-32]”, the entries for the “Degradation rate of AR protein in VCaP cells” value at AR protein (0.5 nM) and at AR protein (5 nM) were 14% and 59%, respectively. Moreover, the IC50 in the experiment on LNCaP cells stood at 0.57 µM; in the experiment on VCaP cells, 1.23 µM.
